Laboratory results: patent publication US10597388B2, “Pyridazinone herbicides” (FMC CORPORATION, priority 2014, dated 2020)

Legend:
Test in all cases: Test E greenhouse herbicide test, pre- and postemergence
Type in all cases: in vivo
[1] = tested on: field bindweed (Convolvulus arvensis)
Method in brief: (§1)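 Greenhouse pots; preemergence on silt loam, postemergence on plants 1- to 4-leaf (2 to 18 cm) grown in peat, vermiculite and nutrient medium. Test chemicals formulated in non-phytotoxic solvent with surfactant. Ratings taken after 14 to 21 d.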

[2] = tested on: waterhemp (common waterhemp, Amaranthus rudis)
Method in brief: as §1

[3] = tested on: arrowleaf sida (Sida rhombifolia)
Method in brief: as §1

[4] = tested on: goosegrass (Eleusine indica); settings: Preemergence
Method in brief: as §1

[5] = tested on: Italian ryegrass (Lolium multiflorum)
Method in brief: as §1

[6] = tested on: barnyardgrass (Echinochloa crus-galli)
Method in brief: as §1

[7] = tested on: horseweed (Conyza canadensis)
Method in brief: as §1

[8] = tested on: beggarticks (hairy beggarticks, Bidens pilosa)
Method in brief: as §1

[9] = tested on: surinam grass (Brachiaria decumbens); settings: Preemergence
Method in brief: as §1

[10] = tested on: ragweed (common ragweed, Ambrosia elatior)
Method in brief: as §1

[11] = tested on: momingglory (Ipomoea coccinea); settings: Preemergence
Method in brief: as §1

[12] = 62 g ai/ha, Postemergence, scale 0 to 100 (0 no effect, 100 complete control)
[13] = 62 g ai/ha, Preemergence, scale 0 to 100 (0 no effect, 100 complete control)
[14] = 125 g ai/ha, Postemergence, scale 0 to 100 (0 no effect, 100 complete control)
[15] = 250 g ai/ha, Postemergence, scale 0 to 100 (0 no effect, 100 complete control)
[16] = Postemergence, 31 g ai/ha, visual, scale 0 no effect to 100 complete control
[17] = Preemergence, 31 g ai/ha, scale 0 to 100, 0 no effect, 100 complete control
[18] = Preemergence, 125 g ai/ha, visual, scale 0 no effect to 100 complete control
[19] = Preemergence, 250 g ai/ha, visual, scale 0 no effect to 100 complete control
[20] = 125 g ai/ha, Preemergence, scale 0 to 100 (0 no effect, 100 complete control)
[21] = 62 g ai/ha, scale 0 to 100 (0 no effect, 100 complete control)
[22] = 31 g ai/ha, scale 0 to 100, 0 no effect, 100 complete control
[23] = 250 g ai/ha, visual, scale 0 no effect to 100 complete control
[24] = 125 g ai/ha, scale 0 to 100 (0 no effect, 100 complete control)
[25] = Postemergence, 16 g ai/ha, visual, scale 0 no effect to 100 complete control

SMILES: Cn1nc(Br)c(O)c(-c2cccc3ccccc23)c1=O [Compound 20]
- Plant response rating, Field Bindweed [1, 12]: 85
- Plant response rating, Field Bindweed [1, 13]: 65
- Plant response rating, Field Bindweed [1, 14]: 90
- Plant response rating, Field Bindweed [1, 15]: 95
- Plant response rating, Field Bindweed [1, 16]: 75
- Plant response rating, Field Bindweed [1, 17]: 35
- Plant response rating, Field Bindweed [1, 18]: 85
- Plant response rating, Field Bindweed [1, 19]: 95
- Plant response rating, Waterhemp [2, 12]: 75
- Plant response rating, Waterhemp [2, 13]: 65
- Plant response rating, Waterhemp [2, 14]: 80
- Plant response rating, Waterhemp [2, 20]: 85
- Plant response rating, Waterhemp [2, 15]: 85
- Plant response rating, Waterhemp [2, 16]: 70
- Plant response rating, Waterhemp [2, 17]: 0
- Plant response rating, Waterhemp [2, 19]: 100
- Plant response rating, Arrowleaf Sida [3, 12]: 60
- Plant response rating, Arrowleaf Sida [3, 13]: 70
- Plant response rating, Arrowleaf Sida [3, 14]: 70
- Plant response rating, Arrowleaf Sida [3, 15]: 80
- Plant response rating, Arrowleaf Sida [3, 16]: 40
- Plant response rating, Arrowleaf Sida [3, 17]: 0
- Plant response rating, Arrowleaf Sida [3, 18]: 85
- Plant response rating, Arrowleaf Sida [3, 19]: 95
- Plant response rating, Goosegrass [4, 21]: 10
- Plant response rating, Goosegrass [4, 22]: 20
- Plant response rating, Goosegrass ([4]; 125 g ai/ha, visual, scale 0 no effect to 100 complete control): 50
- Plant response rating, Goosegrass [4, 23]: 85
- Plant response rating, Ryegrass, Italian [5, 12]: 50
- Plant response rating, Ryegrass, Italian [5, 13]: 95
- Plant response rating, Ryegrass, Italian [5, 14]: 70
- Plant response rating, Ryegrass, Italian [5, 20]: 98
- Plant response rating, Ryegrass, Italian [5, 15]: 80
- Plant response rating, Ryegrass, Italian [5, 16]: 40
- Plant response rating, Ryegrass, Italian [5, 17]: 90
- Plant response rating, Ryegrass, Italian [5, 19]: 100
- Plant response rating, Barnyardgrass [6, 12]: 50
- Plant response rating, Barnyardgrass [6, 13]: 0
- Plant response rating, Barnyardgrass [6, 14]: 60
- Plant response rating, Barnyardgrass [6, 15]: 80
- Plant response rating, Barnyardgrass [6, 16]: 30
- Plant response rating, Barnyardgrass [6, 17]: 0
- Plant response rating, Barnyardgrass [6, 18]: 10
- Plant response rating, Barnyardgrass [6, 19]: 30
- Plant response rating, Horseweed [7, 12]: 80
- Plant response rating, Horseweed [7, 13]: 100
- Plant response rating, Horseweed [7, 14]: 70
- Plant response rating, Horseweed [7, 15]: 85
- Plant response rating, Horseweed [7, 16]: 70
- Plant response rating, Horseweed [7, 17]: 100
- Plant response rating, Horseweed [7, 18]: 100
- Plant response rating, Horseweed [7, 19]: 100
- Plant response rating, Beggarticks [8, 12]: 95
- Plant response rating, Beggarticks [8, 13]: 85
- Plant response rating, Beggarticks [8, 14]: 98
- Plant response rating, Beggarticks [8, 15]: 100
- Plant response rating, Beggarticks [8, 16]: 85
- Plant response rating, Beggarticks [8, 17]: 20
- Plant response rating, Beggarticks [8, 18]: 95
- Plant response rating, Beggarticks [8, 19]: 98
- Plant response rating, Surinam Grass [9, 21]: 65
- Plant response rating, Surinam Grass [9, 24]: 85
- Plant response rating, Surinam Grass [9, 22]: 10
- Plant response rating, Surinam Grass [9, 23]: 90
- Plant response rating, Ragweed [10, 12]: 75
- Plant response rating, Ragweed [10, 13]: 65
- Plant response rating, Ragweed [10, 14]: 85
- Plant response rating, Ragweed [10, 20]: 70
- Plant response rating, Ragweed [10, 15]: 80
- Plant response rating, Ragweed [10, 16]: 65
- Plant response rating, Ragweed [10, 17]: 30
- Plant response rating, Ragweed [10, 19]: 98
- Plant response rating, Morningglory [11, 21]: 75
- Plant response rating, Morningglory [11, 24]: 90
- Plant response rating, Morningglory [11, 22]: 20
- Plant response rating, Morningglory [11, 23]: 95

SMILES: CC(=O)Oc1c(C)nn(C)c(=O)c1-c1c(C)cc(C)c2ccccc12 [Compound 99]
- Plant response rating, Field Bindweed [1, 12]: 70
- Plant response rating, Field Bindweed [1, 14]: 80
- Plant response rating, Field Bindweed [1, 25]: 50
- Plant response rating, Field Bindweed [1, 16]: 60
- Plant response rating, Waterhemp [2, 14]: 75
- Plant response rating, Waterhemp [2, 25]: 65
- Plant response rating, Waterhemp [2, 16]: 45
- Plant response rating, Arrowleaf Sida [3, 12]: 50
- Plant response rating, Arrowleaf Sida [3, 14]: 60
- Plant response rating, Arrowleaf Sida [3, 25]: 10
- Plant response rating, Arrowleaf Sida [3, 16]: 30
- Plant response rating, Ryegrass, Italian [5, 12]: 70
- Plant response rating, Ryegrass, Italian [5, 14]: 80
- Plant response rating, Ryegrass, Italian [5, 25]: 40
- Plant response rating, Ryegrass, Italian [5, 16]: 50
- Plant response rating, Barnyardgrass [6, 12]: 40
- Plant response rating, Barnyardgrass [6, 14]: 50
- Plant response rating, Barnyardgrass [6, 25]: 40
- Plant response rating, Barnyardgrass [6, 16]: 30
- Plant response rating, Horseweed [7, 12]: 60
- Plant response rating, Horseweed [7, 14]: 75
- Plant response rating, Horseweed [7, 25]: 40
- Plant response rating, Horseweed [7, 16]: 50
- Plant response rating, Beggarticks [8, 12]: 100
- Plant response rating, Beggarticks [8, 14]: 95
- Plant response rating, Beggarticks [8, 25]: 70
- Plant response rating, Beggarticks [8, 16]: 80
- Plant response rating, Ragweed [10, 12]: 80
- Plant response rating, Ragweed [10, 14]: 90
- Plant response rating, Ragweed [10, 25]: 50
- Plant response rating, Ragweed [10, 16]: 75

SMILES: Cc1nn(C)c(=O)c(-c2cccc3ccc(Br)cc23)c1O [Compound 126]
- Plant response rating, Field Bindweed [1, 12]: 90
- Plant response rating, Field Bindweed [1, 14]: 95
- Plant response rating, Field Bindweed [1, 15]: 100
- Plant response rating, Field Bindweed [1, 16]: 85
- Plant response rating, Waterhemp [2, 14]: 90
- Plant response rating, Waterhemp [2, 15]: 90
- Plant response rating, Waterhemp [2, 16]: 75
- Plant response rating, Arrowleaf Sida [3, 12]: 80
- Plant response rating, Arrowleaf Sida [3, 14]: 100
- Plant response rating, Arrowleaf Sida [3, 15]: 85
- Plant response rating, Arrowleaf Sida [3, 16]: 75
- Plant response rating, Ryegrass, Italian [5, 12]: 80
- Plant response rating, Ryegrass, Italian [5, 14]: 85
- Plant response rating, Ryegrass, Italian [5, 15]: 90
- Plant response rating, Ryegrass, Italian [5, 16]: 70
- Plant response rating, Barnyardgrass [6, 12]: 50
- Plant response rating, Barnyardgrass [6, 14]: 40
- Plant response rating, Barnyardgrass [6, 15]: 30
- Plant response rating, Barnyardgrass [6, 16]: 40
- Plant response rating, Horseweed [7, 12]: 75
- Plant response rating, Horseweed [7, 14]: 85
- Plant response rating, Horseweed [7, 15]: 80
- Plant response rating, Horseweed [7, 16]: 70
- Plant response rating, Beggarticks [8, 12]: 100
- Plant response rating, Beggarticks [8, 14]: 100
- Plant response rating, Beggarticks [8, 15]: 100
- Plant response rating, Beggarticks [8, 16]: 100
- Plant response rating, Ragweed [10, 12]: 80
- Plant response rating, Ragweed [10, 14]: 100
- Plant response rating, Ragweed [10, 15]: 100
- Plant response rating, Ragweed [10, 16]: 70
